Assay results: patent US12049483B2, “Selective and noncovalent inhibitors of oncogenic RAS mutants” (New York University, priority 2020, dated 2024)
“Also recorded” adds a separate entry of the source.

How the values were obtained:
[1] = molecular target: T1, HRAS(WT) (Homo sapiens, UniProt P01112); experiment: Yeast display binding titration, HRAS(WT); settings: GTPγS and GDP bound states
T1 construct: made in house; host or cells: E. coli BL21(DE3) with pBirA
Description: Nucleotide exchange of RAS. Purified RAS proteins used in binding experiment and crystallization were prepared by diluting stock protein (typically containing 20-250 μM RAS) 25 times with 20 mM Tris-Cl buffer pH 7.5 containing 5 mM EDTA, 0.1 mM DTT and 1 mM final concentration of a nucleotide (GDP or GTPγS). Samples were incubated at 30° C. for 30 minutes. MgCl2 was then added to the sample at a final concentration of 20 mM and the solution was further incubated on ice for at least 5 minutes prior to use.
Monobody development. General procedures for the development of monobodies against purified protein targets have been described previously. After four rounds of phage display library selection using biotinylated KRAS(G12C) at concentrations of 100 nM, 100 nM, 50 nM and 50 nM, the genes encoding monobodies from the enriched phage pool were transferred to a yeast display vector, which was used to construct yeast-display libraries. The yeast display libraries were sorted using a Bio-Rad S3e fluorescence-activated cell sorter or a […] II cell sorter (BD Biosciences). […] Single clones were then screened for selective binding to RAS mutants. The expression of monobodies on the surface of yeast cells were detected using mouse anti-VS and anti-mouse IgG-FITC conjugate. Target binding was detected with neutravidin Dylight650. Yeast cells were analyzed using an iQue flow cytometer (Sartorius). […]

[2] = tested on: ERK activation (pERK); experiment: ERK activation in dox-inducible monobody-expressing cell lines; type: cell-based
Description: Cell signaling assay and quantification of immunoblots. Cells were lysed in RIPA buffer (50 mM Tris-Cl pH 8, 150 mM NaCl, 5 mM EDTA pH8, 0.1% SDS, 1% NP40) supplemented with protease inhibitors (Roche; 5892991001) and phosphatase inhibitors (54 mM β-glycerophosphate, 10 mM NaF, 1 mM sodium vanadate) for 15 minutes on ice, and centrifuged at 15,000 g for 15 minutes. The supernatant was collected and measured for total protein amount using BCA assay (Thermo Scientific; 23227). Lysate (7-20 μg per well) was loaded onto a pre-cast SDS gel (BioRad; 456-1096) followed by electrophoresis. The proteins were then transferred from the gel to a low fluorescence background PVDF membrane (Millipore; IPFL00010) or regular PVDF membrane (Millipore; ISEQ00010) depending on whether fluorescence or chemiluminescence detection was performed. Phospho-ERK was detected using a rabbit anti-pERK antibody (Cell Signaling; 9101S) and total ERK was detected using a rabbit anti-ERK antibody (Cell Signaling; 9102S). Monobody expression was detected using mouse anti-Flag antibody (Sigma; F3165) or anti-HA tag antibody (BioLegend; 901516). Loading control was detected with primary antibody against tubulin-alpha (Thermo Scientific, 62204) or against cytochrome oxidase (COX IV) (Li-Cor, 926-42214). The total RAS level was detected using a pan-RAS antibody (SCBT, sc-166691). The KRAS level was determined using a KRAS-specific antibody (Sigma, WH0003845M1). For fluorescence detection of immunoblots, the membranes were imaged with a Licor Odyssey Clx imager (Li-Cor Bioscience) using IRDye anti-Rabbit 800CW and anti-Mouse 680LT (Li-Cor Bioscience, 926-32211 and 926-68020, respectively) as secondary antibodies. […] Band intensities of western blot were analyzed with Image Studio Lite version 5.2 (Li-Cor Bioscience). To quantify protein abundance in the degradation experiment, the intensities of pERK, RAS, KRAS, and Flag/HA tag bands were first normalized against the loading control of the perspective blot, which were either tubulin-α, COX IV or total ERK, followed by subsequent normalization to the zero time point. […]

[3] = tested on: RAS-mediated signaling (pERK); experiment: ERK activation in HEK293T cells co-expressing monobody and RAS mutants; type: cell-based; settings: expressed intracellularly as a genetically encoded reagent
Description: Transient expression of KRAS and monobody for confocal imaging and signaling experiments. HEK293T cells were cultured in glass-bottom 8-well chambers (ibidi GmbH) for colocalization assays or in a 12-well plate for signaling assays for one day prior to transfection. On the day of transfection at 70-90% confluency, media were replaced with antibiotics-free complete media (DMEM supplemented with 10% FBS). Transfection of pEGFP vectors encoding the appropriate mCherry fused monobodies and EGFP fused KRAS4B constructs was performed with lipofectamine 3000 (Thermo Fisher Scientific) and according to the manufacturer's recommended protocol. […]
Cell signaling assay and quantification of immunoblots. […] The supernatant was collected and measured for total protein amount using BCA assay (Thermo Scientific; 23227). […] The proteins were then transferred from the gel to a low fluorescence background PVDF membrane (Millipore; IPFL00010) or regular PVDF membrane (Millipore; ISEQ00010) depending on whether fluorescence or chemiluminescence detection was performed. Phospho-ERK was detected using a rabbit anti-pERK antibody (Cell Signaling; 9101S) and total ERK was detected using a rabbit anti-ERK antibody (Cell Signaling; 9102S). Monobody expression was detected using mouse anti-Flag antibody (Sigma; F3165) or anti-HA tag antibody (BioLegend; 901516). […]

T1 sequence (P01112 whole entry): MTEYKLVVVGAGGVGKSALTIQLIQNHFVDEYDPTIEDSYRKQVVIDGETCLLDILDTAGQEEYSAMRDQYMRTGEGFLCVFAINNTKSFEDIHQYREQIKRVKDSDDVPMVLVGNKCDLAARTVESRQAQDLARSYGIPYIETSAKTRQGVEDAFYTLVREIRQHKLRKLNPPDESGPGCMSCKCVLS

VSSVPTKLEVVAATPTSLLISWDAPAVTVFFYVITYGETGHGVGAFQAFKVPGSKSTATISGLKPGVDYTITVYARGYSKQGPYKPSPISINYRT [12VC1]
binding [1]: no binding; also recorded: did not detectably bind | ERK activation in H358 cells ([2]; H358, after 24 and 48 hours, dox-induced expression or ARS1620 treatment): effectively inhibited | ERK activation ([2]; KRAS(G12C) (H358 and H23) and KRAS(G12V) (PATU8902 and H441) cell lines, dox-induced expression): potently inhibited | RAS-mediated signaling [3]: potently inhibited
